Where “and” joins values, the source holds several entries; their conditions need not be identical. Equal entries are not always repeated. Structures can show the parent of a compound that is named as a salt.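 Compound exposure: 48 hours, 5 concentrations, 96-well plates. Abbreviation: GI50, concentration required for 50% inhibition of growth.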 Calls of active or inactive are those of the source. No stated cut-off is given here; in the data, active = GI50 up to about 1.1 µM and inactive = higher.
Experiments:
Test in all cases: inhibition of tumour cell growth, NCI panel, 48 h
[1] = tested on: SW-620
[2] = tested on: SN12C
[3] = tested on: SK-MEL-28
[4] = tested on: RXF 393
[5] = tested on: HOP-62
[6] = tested on: K562
[7] = tested on: HL-60
[8] = tested on: EKVX
[9] = tested on: OVCAR-8
[10] = tested on: CAKI-1
[11] = tested on: SK-MEL-5
[12] = tested on: UACC-62
[13] = tested on: NCI-H460
[14] = tested on: SF-295
[15] = tested on: U-251
[16] = tested on: UACC-257
[17] = tested on: HOP-92
[18] = tested on: DMS-114
[19] = tested on: XF498
[20] = tested on: M19-MEL

| Structure (SMILES) | GI50 [1] | GI50 [2] | GI50 [3] | GI50 [4] | GI50 [5] | GI50 [6] | GI50 [7] | GI50 [8] | GI50 [9] | GI50 [10] | GI50 [11] | GI50 [12] | GI50 [13] | GI50 [14] | GI50 [15] | GI50 [16] | GI50 [17] | GI50 [18] | GI50 [19] | GI50 [20] |
| --- | --- | --- | --- | --- | --- | --- | --- | --- | --- | --- | --- | --- | --- | --- | --- | --- | --- | --- | --- | --- |
| COc1ccc(N2C(=O)C3c4[nH]c5cc(C)ccc5c4C4CCC(C(C)(C)C)CC4C3C2=O)cc1 (stereo not drawn) | > 10 µM (inactive) | > 10 µM (inactive) | > 10 µM (inactive) | > 10 µM (inactive) | 7.6 µM (inactive) | > 10 µM (inactive) | > 10 µM (inactive) | 9.1 µM (inactive) | 4.88 µM (inactive) | > 10 µM (inactive) | > 10 µM (inactive) | 6.19 µM (inactive) | 7.62 µM (inactive) | 7.08 µM (inactive) | 5.43 µM (inactive) |  |  |  |  |  |
| O=C(O)CN1CCCC(Cc2c[nH]c3ccccc23)C1 (stereo not drawn) | > 100 µM (inactive) |  | > 100 µM (inactive) | > 100 µM (inactive) | > 100 µM (inactive) | 40.6 µM (inactive) |  | > 100 µM (inactive) | > 100 µM (inactive) | > 100 µM (inactive) | > 100 µM (inactive) | > 100 µM (inactive) |  | > 100 µM (inactive) |  | > 100 µM (inactive) | > 100 µM (inactive) |  |  |  |
| CCOC(=O)CNC(=O)N(CC)C12CC3CC(CC(C3)C1)C2 | 145 µM (inactive) | 147 µM (inactive) | 206 µM (inactive) | 152 µM (inactive) | 128 µM (inactive) | 122 µM (inactive) | 107 µM (inactive) | 157 µM (inactive) | 150 µM (inactive) | 147 µM (inactive) | 104 µM (inactive) | 97.5 µM (inactive) | 154 µM (inactive) | 136 µM (inactive) | 119 µM (inactive) | 122 µM (inactive) | 60.1 µM (inactive) | 107 µM (inactive) | 125 µM (inactive) | 153 µM (inactive) |
| O=C1c2cccc3cc4ccccc4c(c23)C(=O)N1CCNCCN1C(=O)c2cccc3cc4ccccc4c(c23)C1=O | 0.238 µM (active) | 0.306 µM (active) | 0.592 µM (active) | 0.525 µM (active) | 1.04 µM (active) | 0.301 µM (active) | 0.178 µM (active) | 0.587 µM (active) | 0.357 µM (active) | 0.245 µM (active) | 0.504 µM (active) | 0.318 µM (active) | 0.0541 µM (active) | 0.243 µM (active) | 0.282 µM (active) | 1.27 µM (inactive) | 0.449 µM (active) | 0.23 µM (active) | 0.254 µM (active) | 0.508 µM (active) |
| NC(=S)N/N=C/c1ccc(OC(=O)COc2ccccc2Cl)cn1 | 31 µM (inactive) | 30.5 µM (inactive) | 65 µM (inactive) | > 37.5 µM (inactive) | 20.5 µM (inactive) | 23.1 µM (inactive) | 18.4 µM (inactive) | 56.4 µM (inactive) | 15.7 µM (inactive) | 44.2 µM (inactive) | 24.8 µM (inactive) | 14.6 µM (inactive) | 35.2 µM (inactive) | > 62.7 µM (inactive) | 25.1 µM (inactive) | 50.1 µM (inactive) | 12.9 µM (inactive) |  | 40 µM (inactive) | 25.9 µM (inactive) |
| O=C(O)c1cccc2cccc(-c3c4ccc(=O)cc-4oc4cc(O)ccc34)c12 | 49.7 µM (inactive) | > 100 µM (inactive) | > 100 µM (inactive) | > 100 µM (inactive) | 16.4 µM (inactive) | 31 µM (inactive) | 62.7 µM (inactive) | > 100 µM (inactive) | > 100 µM (inactive) | > 100 µM (inactive) | > 100 µM (inactive) | > 100 µM (inactive) | > 100 µM (inactive) | 34.8 µM (inactive) | > 100 µM (inactive) | > 100 µM (inactive) |  |  |  |  |
| CSc1sc(=S)sc1SC | > 100 µM (inactive) | > 100 µM (inactive) | > 100 µM (inactive) | > 100 µM (inactive) | > 100 µM (inactive) | > 100 µM (inactive) | > 31.6 µM (inactive) | > 100 µM (inactive) | > 100 µM (inactive) | 1 µM (active) | > 100 µM (inactive) | > 100 µM (inactive) | > 100 µM (inactive) | > 100 µM (inactive) | > 100 µM (inactive) | > 100 µM (inactive) | > 100 µM (inactive) | > 100 µM (inactive) | > 100 µM (inactive) | > 100 µM (inactive) |
| CC1CC2C3CC(F)C4=CC(=O)C=CC4(C)C3(F)C(O)CC2(C)C1(O)C(=O)COC(=O)C(C)(C)C (stereo not drawn) | > 100 µM (inactive) |  | 37.2 µM (inactive) | 18.7 µM (inactive) | 75.7 µM (inactive) | > 100 µM (inactive) | > 100 µM (inactive) | > 100 µM (inactive) |  | > 100 µM (inactive) | > 100 µM (inactive) | > 100 µM (inactive) | 47 µM (inactive) | 61.7 µM (inactive) | > 100 µM (inactive) | 57.9 µM (inactive) | > 100 µM (inactive) | > 100 µM (inactive) | > 100 µM (inactive) | > 100 µM (inactive) |
| CC(=O)N/C(=C\c1ccc(/C=C(\NC(C)=O)C2=NC3C(=O)c4ccccc4C(=O)C3N2)cc1)C1=NC2C(=O)c3ccccc3C(=O)C2N1 (stereo not drawn) | 1.84 µM (inactive) | 22.6 µM (inactive) | > 100 µM (inactive) | 13.2 µM (inactive) |  | 19.3 µM (inactive) | 3.96 µM (inactive) | 15.6 µM (inactive) | 22.4 µM (inactive) | 3.27 µM (inactive) | 3.4 µM (inactive) | 25.8 µM (inactive) | 12.8 µM (inactive) | 68.2 µM (inactive) | 9.98 µM (inactive) | > 100 µM (inactive) | 30.8 µM (inactive) | 8 µM (inactive) | > 100 µM (inactive) | 92.3 µM (inactive) |
| O=C1c2ccccc2C(=O)c2c1ccc1c2N=C(c2ccc(F)cc2)CC(c2ccc(Cl)c(Cl)c2)N1 (stereo not drawn) | 6.11 µM (inactive) | 17.3 µM (inactive) | 19.3 µM (inactive) |  | 22 µM (inactive) | 7.16 µM (inactive) | 3.94 µM (inactive) | 3.96 µM (inactive) | 13.4 µM (inactive) | 3.27 µM (inactive) | 15.6 µM (inactive) | 12.1 µM (inactive) | 16.9 µM (inactive) | 14.6 µM (inactive) | 12.1 µM (inactive) | 23.7 µM (inactive) | 22.7 µM (inactive) | 10.1 µM (inactive) |  | 17.2 µM (inactive) |
| NC(=O)Nc1cc(O)ccc1/N=N/c1ccc(S(=O)(=O)Nc2ccccn2)cc1 | > 100 µM (inactive) | > 100 µM (inactive) | > 100 µM (inactive) |  | > 100 µM (inactive) | > 100 µM (inactive) | > 100 µM (inactive) | > 100 µM (inactive) | > 100 µM (inactive) | > 100 µM (inactive) | > 100 µM (inactive) | > 100 µM (inactive) | > 100 µM (inactive) | > 100 µM (inactive) | > 100 µM (inactive) | > 100 µM (inactive) | > 100 µM (inactive) | > 100 µM (inactive) | > 100 µM (inactive) | > 100 µM (inactive) |
| CCC1C[N+]23CCc4c([nH]c5ccccc45)C2CC1CC3 (stereo not drawn) | > 100 µM (inactive) | 76.4 µM (inactive) | > 100 µM (inactive) | > 100 µM (inactive) | > 100 µM (inactive) | 70.8 µM (inactive) |  | > 100 µM (inactive) | 81.3 µM (inactive) | 49.1 µM (inactive) | 22.4 µM (inactive) | > 100 µM (inactive) | 49.4 µM (inactive) | > 100 µM (inactive) | 98.6 µM (inactive) | 50.1 µM (inactive) | 82.6 µM (inactive) | 53.5 µM (inactive) | 42.9 µM (inactive) | 52.5 µM (inactive) |
| COC(=O)C1=CC[C@@H]2C(C(=O)O)=CO[C@@H](OC3OC(CO)C(O)C(O)C3O)[C@H]12 (stereo partly drawn) | > 300 µM (inactive) | > 300 µM (inactive) | > 300 µM (inactive) | > 300 µM (inactive) | > 300 µM (inactive) | > 300 µM (inactive) | > 300 µM (inactive) | > 300 µM (inactive) | > 300 µM (inactive) | > 300 µM (inactive) | > 151 µM (inactive) | > 300 µM (inactive) | > 300 µM (inactive) | > 150 µM (inactive) | > 300 µM (inactive) | > 300 µM (inactive) | > 110 µM (inactive) | > 300 µM (inactive) | > 228 µM (inactive) | > 300 µM (inactive) |
| Nc1ccc2cc3ccc(N)cc3nc2c1 [PROFLAVINE SULFATE] | 494 nM (active) and 397 nM (active) | 843 nM (active) and 1.04 µM (active) | 2.45 µM (inactive) and 1.88 µM (inactive) |  | 2.47 µM (inactive) and 2.21 µM (inactive) |  | 2.62 µM (inactive) and 1.67 µM (inactive) | 1.24 µM (inactive) | 1.09 µM (active) and 995 nM (active) | 2.18 µM (inactive) and 1.82 µM (inactive) | 1.61 µM (inactive) and 1.38 µM (inactive) | 1.56 µM (inactive) and 1.6 µM (inactive) | 528 nM (active) and 485 nM (active) | 2.45 µM (inactive) and 1.94 µM (inactive) |  | 1.87 µM (inactive) and 1.49 µM (inactive) | 1.45 µM (inactive) and 2.49 µM (inactive) | 1.21 µM (inactive) | 1.53 µM (inactive) | 1.79 µM (inactive) |

Reference: ChEMBL document CHEMBL1201862, “PubChem BioAssay data set” (2004)
